Laboratory results reported in the supplement of paper PMC10307832.

How the values were obtained:
Test in all cases: relative viability (nuclei count vs DMSO), 5 days (fraction); higher = more cells survive
[1] = compound: COc1cccc2c1C(=O)c1c(O)c3c(c(O)c1C2=O)C[C@@](O)(C(=O)CO)C[C@@H]3O[C@H]1C[C@H](N)[C@H](O)[C@H](C)O1 [Doxorubicin] + CC(=O)c1c(C)c2cnc(Nc3ccc(N4CCNCC4)cn3)nc2n(C2CCCC2)c1=O [Palbociclib] (partner 0.5 µM)
In short: (§1)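 Lung cancer cell lines were seeded in 1536-well plates and dosed by pin tool the next day, with either a single drug or a fixed anchor-drug dose combined with five library-drug doses (not always all listed) spaced in √10 steps. Five days later, one step fixed the cells and stained their nuclei (final 0.05% Triton X-100, 1% formaldehyde, 1 ug/ml Hoechst), and nuclei were counted on 4× images. Relative viability is the nuclei count in treated wells divided by the count in vehicle wells, and each value is the median of duplicate plates.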

[2] = compound: COc1cccc2c1C(=O)c1c(O)c3c(c(O)c1C2=O)C[C@@](O)(C(=O)CO)C[C@@H]3O[C@H]1C[C@H](N)[C@H](O)[C@H](C)O1 [Doxorubicin] + CC1(C)CCC(c2ccc(Cl)cc2)=C(CN2CCN(c3ccc(C(=O)NS(=O)(=O)c4ccc(N[C@H](CCN5CCOCC5)CSc5ccccc5)c(S(=O)(=O)C(F)(F)F)c4)cc3)CC2)C1 [Navitoclax] (partner 0.5 µM)
In short: as §1

[3] = compound: COC1=C(C=C(C=C1)C2=CC3=NC=CN3C(=N2)NC4=C(C=CC=N4)C(=O)N)OC [BAY61-3606] + Cc1cc(Nc2cc(N3CCN(C)CC3)nc(Sc3ccc(NC(=O)C4CC4)cc3)n2)n[nH]1 [Tozasertib] (partner 0.1 µM)
In short: as §1

[4] = compound: COc1cccc2c1C(=O)c1c(O)c3c(c(O)c1C2=O)C[C@@](O)(C(=O)CO)C[C@@H]3O[C@H]1C[C@H](N)[C@H](O)[C@H](C)O1 [Doxorubicin] + C[C@]1(O)C[C@@H](c2nc(-c3ccc4ccc(-c5ccccc5)nc4c3)c3c(N)nccn32)C1 [Linsitinib] (partner 1 µM)
In short: as §1

| Cell Line | relative viability ([1]; first compound 0.001 µM) | relative viability ([1]; first compound 0.003162 µM) | relative viability ([1]; first compound 0.01 µM) | relative viability ([1]; first compound 0.03162 µM) | relative viability ([1]; first compound 0.1 µM) | relative viability ([2]; first compound 0.001 µM) | relative viability ([2]; first compound 0.003162 µM) | relative viability ([2]; first compound 0.01 µM) | relative viability ([2]; first compound 0.03162 µM) | relative viability ([2]; first compound 0.1 µM) | relative viability ([3]; first compound 0.02 µM) | relative viability ([3]; first compound 0.06325 µM) | relative viability ([3]; first compound 0.2 µM) | relative viability ([3]; first compound 0.6325 µM) | relative viability ([3]; first compound 2 µM) | relative viability ([4]; first compound 0.001 µM) | relative viability ([4]; first compound 0.003162 µM) | relative viability ([4]; first compound 0.01 µM) | relative viability ([4]; first compound 0.03162 µM) | relative viability ([4]; first compound 0.1 µM) |
| --- | --- | --- | --- | --- | --- | --- | --- | --- | --- | --- | --- | --- | --- | --- | --- | --- | --- | --- | --- | --- |
| NCI-H838 | 0.254 | 0.234 | 0.229 | 0.222 | 0.184 | 1.12 | 1.17 | 1.12 | 0.905 | 0.423 | 0.285 | 0.224 | 0.234 | 0.23 | 0.224 | 1.04 | 1.04 | 0.952 | 0.906 | 0.446 |
| NCI-H1915 | 0.581 | 0.536 | 0.549 | 0.483 | 0.543 | 0.778 | 0.813 | 0.788 | 0.784 | 0.829 | 0.416 | 0.329 | 0.365 | 0.277 | 0.152 | 1.14 | 1.03 | 1.08 | 1.05 | 1.1 |
| NCI-H441 | 0.227 | 0.217 | 0.229 | 0.153 | 0.195 | – | 0.688 | 0.351 | 0.308 | 0.423 | 0.636 | 0.558 | 0.363 | 0.314 | 0.274 | 0.697 | 0.718 | 0.513 | 0.281 | 0.513 |
| NCI-H1355 | 0.423 | 0.432 | 0.388 | 0.38 | 0.392 | 0.982 | 1.1 | 0.911 | 0.904 | 1.06 | 0.568 | 0.344 | 0.49 | 0.344 | 0.214 | 0.793 | 0.862 | 0.81 | 0.872 | 0.785 |
| NCI-H1651 | 0.517 | 0.546 | 0.461 | 0.449 | 0.483 | 0.991 | 1.19 | 0.801 | 0.436 | 0.204 | 0.726 | 0.488 | 0.503 | 0.55 | 0.356 | 0.838 | 0.944 | 0.831 | 0.401 | 0.292 |
| NCI-H2023 | 0.368 | 0.368 | 0.254 | 0.169 | 0.0764 | 0.956 | 1.05 | 0.886 | 0.482 | 0.16 | 0.359 | 0.225 | 0.232 | 0.197 | 0.118 | 0.642 | 0.62 | 0.549 | 0.279 | 0.102 |
| LU99A | 0.449 | 0.521 | 0.44 | 0.41 | 0.417 | 0.783 | 0.919 | 0.867 | 0.554 | 0.801 | 0.279 | 0.216 | 0.217 | 0.239 | 0.177 | 0.521 | 0.645 | 0.526 | 0.456 | 0.575 |
| NCI-H322M | 0.548 | 0.482 | 0.486 | 0.465 | 0.465 | 1.18 | 1.19 | 1.15 | 1.31 | 1.26 | 0.498 | 0.477 | 0.48 | 0.421 | 0.412 | 0.986 | 0.913 | 0.982 | 0.974 | 0.952 |
| LOU-NH91 | – | 0.459 | 0.564 | 0.526 | 0.416 | – | 0.561 | 0.711 | 0.444 | 0.405 | 0.617 | 0.363 | 0.473 | 0.422 | 0.344 | – | 0.826 | 0.953 | 0.73 | 0.7 |
| NCI-H727 | 0.655 | 0.661 | – | 0.577 | 0.62 | 0.402 | 0.474 | 0.492 | 0.462 | 0.455 | 0.799 | 0.593 | 0.521 | 0.656 | 0.442 | 0.275 | 0.323 | 0.304 | 0.251 | 0.455 |
| RERF-LC-KJ | 1.07 | 1.15 | 0.921 | 0.542 | 0.653 | 1.05 | 0.765 | 1.12 | – | 1.05 | 0.532 | 0.435 | 0.399 | 0.368 | 0.279 | 0.816 | 0.858 | 0.873 | 0.943 | 0.887 |
| H3255 | 0.306 | 0.315 | 0.306 | 0.348 | 0.263 | 0.603 | 0.617 | 0.53 | 0.457 | 0.289 | 0.6 | 0.64 | 0.54 | 0.649 | 0.701 | 0.906 | 1.07 | 0.908 | 0.9 | 0.938 |
| NCI-H1793 | – | 0.303 | 0.304 | 0.258 | 0.324 | – | 0.448 | 0.393 | 0.478 | 0.547 | 0.313 | 0.227 | – | 0.203 | 0.222 | – | 0.813 | 0.848 | 0.579 | 0.911 |
| LXF-289 | 0.589 | 0.625 | 0.549 | 0.634 | 0.607 | 0.935 | 0.939 | 0.873 | 0.983 | 0.944 | 0.227 | 0.183 | 0.194 | 0.16 | 0.165 | 0.997 | 0.968 | 0.946 | 1.04 | 0.993 |
| HOP-62 | 0.421 | 0.444 | 0.494 | 0.434 | 0.486 | 1.06 | 0.927 | 0.988 | 0.944 | 1.01 | 0.323 | 0.224 | 0.297 | 0.286 | 0.144 | 0.954 | 1.04 | 1.11 | 1.17 | 1.04 |
| LK-2 | 0.704 | 0.773 | 0.637 | 0.487 | 0.515 | 0.894 | 0.875 | 0.889 | 0.638 | 0.804 | 0.19 | 0.163 | 0.193 | 0.158 | 0.21 | 0.524 | 0.742 | 0.409 | 0.483 | 0.627 |
